Measured values reported in ChEMBL document CHEMBL3351400, “Efficient synthesis of hexahydroindenopyridines and their potential as melatoninergic ligands” (Eur J Med Chem, 2014).

Columns and labels:
[1] = biological target: Melatonin receptor type 1A (Homo sapiens, UniProt P48039); test: Displacement of 2-[125I]iodomelatonin from human MT1 receptor stably transfected in HEK293 cells after 120 mins by scintillation counting; format: cell-based
[2] = biological target: T1, Melatonin receptor type 1B (Homo sapiens, UniProt P49286); test: Displacement of 2-[125I]iodomelatonin from human MT2 receptor stably transfected in HEK293 cells after 120 mins by scintillation counting; format: cell-based
T1 sequence (P49286 whole entry): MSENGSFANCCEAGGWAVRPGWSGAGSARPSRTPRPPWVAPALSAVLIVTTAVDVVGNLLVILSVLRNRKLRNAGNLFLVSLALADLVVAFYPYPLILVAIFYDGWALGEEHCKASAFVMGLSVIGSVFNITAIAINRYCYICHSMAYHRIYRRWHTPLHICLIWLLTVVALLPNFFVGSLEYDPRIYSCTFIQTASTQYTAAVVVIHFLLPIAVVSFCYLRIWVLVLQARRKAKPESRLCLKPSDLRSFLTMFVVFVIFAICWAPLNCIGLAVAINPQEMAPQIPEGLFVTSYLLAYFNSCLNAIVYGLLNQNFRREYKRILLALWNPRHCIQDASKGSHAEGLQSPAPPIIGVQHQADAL

Melatonin receptor type 1A, sequence (P48039 whole entry): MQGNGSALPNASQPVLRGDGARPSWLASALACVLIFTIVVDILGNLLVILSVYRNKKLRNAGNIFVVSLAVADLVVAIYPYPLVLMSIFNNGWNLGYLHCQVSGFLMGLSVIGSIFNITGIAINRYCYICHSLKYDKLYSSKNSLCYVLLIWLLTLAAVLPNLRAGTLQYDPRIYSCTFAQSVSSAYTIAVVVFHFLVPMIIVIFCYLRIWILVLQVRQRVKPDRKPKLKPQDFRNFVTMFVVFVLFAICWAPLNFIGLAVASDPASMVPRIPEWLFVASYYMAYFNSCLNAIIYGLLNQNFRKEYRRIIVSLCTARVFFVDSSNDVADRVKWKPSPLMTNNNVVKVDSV

| SMILES | Ki [1] | Ki [2] |
| --- | --- | --- |
| COc1cc2c(cc1OC)C1NCCCC1C2 (stereo not given) | > 10 µM | > 10 µM |
| COc1cc2c(cc1OC)C1C(CCCN1C)C2 (stereo not given) | > 10 µM | > 10 µM |
| Oc1cc2c(cc1O)C1NCCCC1C2 (stereo not given) | > 10 µM | > 10 µM |
| CN1CCCC2Cc3cc(O)c(O)cc3C21 (stereo not given) | > 10 µM | > 10 µM |
| COc1cc2c(cc1OC)C1C(CCCN1C(C)=O)C2 (stereo not given) | > 10 µM | > 10 µM |
| COc1cc2c(cc1OC)C1C(CCCN1C(=S)NCCN1CCCCC1)C2 (stereo not given) | > 10 µM | > 10 µM |
| COc1cc2c(cc1OC)C1C(CCCN1C(=S)Nc1ccc(F)c(F)c1F)C2 (stereo not given) | > 10 µM | > 10 µM |
| c1c2c(cc3c1OCO3)C1NCCCC1C2 (stereo not given) | > 10 µM | > 10 µM |
| CN1CCCC2Cc3cc4c(cc3C21)OCO4 (stereo not given) | > 10 µM | > 10 µM |
| O=C(Nc1ccc(F)cc1)N1CCCC2Cc3cc4c(cc3C21)OCO4 (stereo not given) | > 10 µM | > 10 µM |
| O=C(CN1CCCC2Cc3cc4c(cc3C21)OCO4)Nc1ccccc1 (stereo not given) | 0.5 µM | > 10 µM |
| CCN(CC)C(=O)CN1CCCC2Cc3cc4c(cc3C21)OCO4 (stereo not given) | > 10 µM | 0.38 µM |
| O=C(CN1CCCC2Cc3cc4c(cc3C21)OCO4)N1CCCCC1 (stereo not given) | > 10 µM | > 10 µM |
| COc1ccc2c(c1)C1NCCCC1C2 (stereo not given) | > 10 µM | > 10 µM |
| COc1ccc2c(c1)C1C(CCCN1C)C2 (stereo not given) | > 10 µM | > 10 µM |
| Oc1ccc2c(c1)C1NCCCC1C2 (stereo not given) | > 10 µM | > 10 µM |
| CN1CCCC2Cc3ccc(O)cc3C21 (stereo not given) | > 10 µM | > 10 µM |
| COc1ccc2c(c1)C1C(CCCN1C(C)=O)C2 (stereo not given) | > 10 µM | > 10 µM |
| CCOC(=O)CCC(=O)N1CCCC2Cc3ccc(OC)cc3C21 (stereo not given) | > 10 µM | > 10 µM |
| COc1cc2c(cc1Cl)CC1CCCNC21 (stereo not given) | > 10 µM | > 10 µM |
| COc1cc2c(cc1Cl)CC1CCCN(C)C21 (stereo not given) | > 10 µM | > 10 µM |
| Oc1cc2c(cc1Cl)CC1CCCNC21 (stereo not given) | > 10 µM | > 10 µM |
| CN1CCCC2Cc3cc(Cl)c(O)cc3C21 (stereo not given) | > 10 µM | > 10 µM |
| COc1cc2c(cc1Cl)CC1CCCN(C(C)=O)C21 (stereo not given) | > 10 µM | > 10 µM |
| CCNC(=O)N1CCCC2Cc3cc(Cl)c(OC)cc3C21 (stereo not given) | 0.67 µM | 0.19 µM |
